Bridge positions count the residues as written; N and C are the ends. Square brackets hold non-standard residues; d marks the D form. Primed or numbered codes have the meaning given here. Ends that are not written are not given here. Peptide text beside a SMILES is read from it. * marks the point of attachment. X1 = O=C(O)CN1CCN(CC(=O)O)CCN([C@H](CCC(=O)*)C(=O)O)CCN(CC(=O)O)CC1; GdDOTAGA″ = gadolinium DOTAGA chelate, amide-bonded; Bip = N[C@@H](Cc1ccc(-c2ccccc2)cc1)C(=O)O
Experiments:
human type I collagen = target: T1, human type I collagen (Homo sapiens, UniProt P02452+P08123); assay: Collagen binding assay, dried human collagen in microtiter plate; conditions: 37° C., pH 7.4
T1 construct: purchased Advanced Biomatrix 5007-A
Description: 10 ml of a solution of 3 mg/ml of human type I collagen (VitroCol solution, Advanced Biomatrix, cat#5007-A) is dialyzed against 10 mM Phosphate (NaH2PO4), pH 4.2 at 4° C. with three changes of the dialysis buffer. The protein concentration is determined by liquid chromatography determination of hydroxyproline (P. Hutson, J. Chromatogr. B, 791 (2003) 427-430).
(§1) Ice-cold 1×PBS pH 10.8 is added to the collagen solution for a final collagen concentration of 10 μM, pH 7.4. Collagen solutions are gelled and dried down in the wells of a 96 well microtiter plate (Corning Polystyrene Flat Bottom, cat#3641). […] The final well content of gelled collagen is measured by determination of hydroxyproline and is around 180 μg/ml.
(§2) a serial dilution of 0.2 μM-30 μM of the peptide chelate is prepared in PBS, pH 7.4 ([…], of solution for each concentration). […] The concentration of free, unbound compound in the sample supernatants and the concentration of compound in the reserved (total) sample are determined by ICP-MS (Agilent 7500, gadolinium concentration). The concentration of compound bound to collagen is determined as [bound]=[total]−[unbound].
(§3) The binding of compounds to human, rat and dog collagen (5 μM) was measured over the concentration range 0.2-5 μM of Comp ID Nos.: 1-4. […]

[1] = target: T2, Canine collagen (Native canine Collagen Type I and III protein) (Canis lupus familiaris, UniProt O46392+Q9XSJ7); assay: Collagen binding assay, dried canine collagen in microtiter plate; conditions: 37° C., pH 7.4; read-out: Collagen Binding Dog (Kd)
T2 construct: purchased YO protein AB 739
Description: Canine collagen (Native canine Collagen Type I and III protein, YO protein AB, cat#739) is dissolved in 0.5 M acetic acid at 3.3 mg/ml by vortexing and shaking overnight at 4° C. The solution is then dialyzed against 10 mM Phosphate (NaH2PO4), pH 4.2 at 4° C. with three changes of the dialysis buffer.
as §1, with “cat#3641). 70 μl of 10 μM collagen is aliquoted into each well in every other lane in the plate (48 wells) and the plate is incubated at 37° C. for 18 hours to form a gel and evaporate to dryness.” for “cat#3641).”
as §2, §3

[2] = target: rat collagen (acid soluble, type I, rat tail, Millipore Inc, cat#08-115) (rat) (UniProt P02454); assay: dried collagen film in microtiter plate; unbound compound by ICP-MS (Gd); fit to 1 binding site

T1 sequence (P02452 162-1218 limits assumed): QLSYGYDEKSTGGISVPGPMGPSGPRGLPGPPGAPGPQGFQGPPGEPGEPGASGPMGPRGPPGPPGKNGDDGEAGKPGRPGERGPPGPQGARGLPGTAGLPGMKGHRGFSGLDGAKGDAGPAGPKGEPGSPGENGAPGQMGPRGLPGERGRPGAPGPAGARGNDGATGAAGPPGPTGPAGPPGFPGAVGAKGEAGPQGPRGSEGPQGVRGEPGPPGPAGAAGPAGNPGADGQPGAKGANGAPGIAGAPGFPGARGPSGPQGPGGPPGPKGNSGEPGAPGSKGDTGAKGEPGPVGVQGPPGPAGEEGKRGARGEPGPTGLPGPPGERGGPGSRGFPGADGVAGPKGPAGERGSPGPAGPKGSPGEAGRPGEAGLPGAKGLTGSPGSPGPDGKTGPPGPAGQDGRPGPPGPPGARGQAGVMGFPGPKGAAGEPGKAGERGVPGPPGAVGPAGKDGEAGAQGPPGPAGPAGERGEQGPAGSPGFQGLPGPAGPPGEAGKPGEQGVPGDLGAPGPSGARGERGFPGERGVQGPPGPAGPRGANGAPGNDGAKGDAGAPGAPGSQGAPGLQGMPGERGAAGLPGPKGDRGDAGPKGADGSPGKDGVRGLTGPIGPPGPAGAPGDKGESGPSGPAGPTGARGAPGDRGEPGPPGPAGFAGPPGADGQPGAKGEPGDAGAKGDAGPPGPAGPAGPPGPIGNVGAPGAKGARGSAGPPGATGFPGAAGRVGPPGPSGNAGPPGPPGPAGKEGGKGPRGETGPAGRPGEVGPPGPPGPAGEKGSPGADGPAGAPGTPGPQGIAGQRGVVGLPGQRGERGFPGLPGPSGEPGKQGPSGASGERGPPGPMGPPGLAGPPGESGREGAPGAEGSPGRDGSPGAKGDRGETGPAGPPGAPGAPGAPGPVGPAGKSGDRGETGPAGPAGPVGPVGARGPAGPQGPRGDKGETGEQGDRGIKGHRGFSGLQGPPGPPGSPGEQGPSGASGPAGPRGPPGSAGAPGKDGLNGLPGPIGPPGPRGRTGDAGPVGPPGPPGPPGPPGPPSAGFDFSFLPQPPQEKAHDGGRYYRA
T1 sequence (P08123 80-1119 limits assumed): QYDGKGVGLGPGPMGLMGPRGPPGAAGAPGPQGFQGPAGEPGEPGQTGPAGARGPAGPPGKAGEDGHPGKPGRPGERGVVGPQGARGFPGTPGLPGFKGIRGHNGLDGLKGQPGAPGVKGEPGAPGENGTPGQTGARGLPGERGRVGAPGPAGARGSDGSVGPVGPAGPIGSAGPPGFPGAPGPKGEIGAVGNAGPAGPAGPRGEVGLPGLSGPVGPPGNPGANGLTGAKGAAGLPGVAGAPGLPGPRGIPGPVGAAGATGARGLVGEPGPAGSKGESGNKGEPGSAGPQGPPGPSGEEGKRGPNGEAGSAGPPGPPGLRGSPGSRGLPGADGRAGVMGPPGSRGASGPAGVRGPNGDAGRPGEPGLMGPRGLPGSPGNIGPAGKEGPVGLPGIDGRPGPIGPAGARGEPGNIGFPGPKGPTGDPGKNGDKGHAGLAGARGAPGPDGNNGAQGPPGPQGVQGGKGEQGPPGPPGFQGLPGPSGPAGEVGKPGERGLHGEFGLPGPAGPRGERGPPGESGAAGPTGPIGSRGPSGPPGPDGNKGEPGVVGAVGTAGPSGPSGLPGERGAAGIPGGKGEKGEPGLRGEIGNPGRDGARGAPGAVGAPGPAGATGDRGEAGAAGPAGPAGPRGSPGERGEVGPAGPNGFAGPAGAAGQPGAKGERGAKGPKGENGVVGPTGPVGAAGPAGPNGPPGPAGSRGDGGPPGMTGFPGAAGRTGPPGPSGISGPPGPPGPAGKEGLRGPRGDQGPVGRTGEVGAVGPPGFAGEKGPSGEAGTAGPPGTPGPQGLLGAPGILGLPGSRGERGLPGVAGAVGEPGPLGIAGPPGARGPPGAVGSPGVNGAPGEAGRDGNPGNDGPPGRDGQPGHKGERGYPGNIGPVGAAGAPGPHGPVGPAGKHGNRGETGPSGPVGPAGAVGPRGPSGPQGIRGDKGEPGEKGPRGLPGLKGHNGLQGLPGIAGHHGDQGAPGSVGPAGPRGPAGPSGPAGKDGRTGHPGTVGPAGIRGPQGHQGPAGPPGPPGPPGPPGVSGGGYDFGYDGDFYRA
T2 sequence (Q9XSJ7 158-1214 limits assumed): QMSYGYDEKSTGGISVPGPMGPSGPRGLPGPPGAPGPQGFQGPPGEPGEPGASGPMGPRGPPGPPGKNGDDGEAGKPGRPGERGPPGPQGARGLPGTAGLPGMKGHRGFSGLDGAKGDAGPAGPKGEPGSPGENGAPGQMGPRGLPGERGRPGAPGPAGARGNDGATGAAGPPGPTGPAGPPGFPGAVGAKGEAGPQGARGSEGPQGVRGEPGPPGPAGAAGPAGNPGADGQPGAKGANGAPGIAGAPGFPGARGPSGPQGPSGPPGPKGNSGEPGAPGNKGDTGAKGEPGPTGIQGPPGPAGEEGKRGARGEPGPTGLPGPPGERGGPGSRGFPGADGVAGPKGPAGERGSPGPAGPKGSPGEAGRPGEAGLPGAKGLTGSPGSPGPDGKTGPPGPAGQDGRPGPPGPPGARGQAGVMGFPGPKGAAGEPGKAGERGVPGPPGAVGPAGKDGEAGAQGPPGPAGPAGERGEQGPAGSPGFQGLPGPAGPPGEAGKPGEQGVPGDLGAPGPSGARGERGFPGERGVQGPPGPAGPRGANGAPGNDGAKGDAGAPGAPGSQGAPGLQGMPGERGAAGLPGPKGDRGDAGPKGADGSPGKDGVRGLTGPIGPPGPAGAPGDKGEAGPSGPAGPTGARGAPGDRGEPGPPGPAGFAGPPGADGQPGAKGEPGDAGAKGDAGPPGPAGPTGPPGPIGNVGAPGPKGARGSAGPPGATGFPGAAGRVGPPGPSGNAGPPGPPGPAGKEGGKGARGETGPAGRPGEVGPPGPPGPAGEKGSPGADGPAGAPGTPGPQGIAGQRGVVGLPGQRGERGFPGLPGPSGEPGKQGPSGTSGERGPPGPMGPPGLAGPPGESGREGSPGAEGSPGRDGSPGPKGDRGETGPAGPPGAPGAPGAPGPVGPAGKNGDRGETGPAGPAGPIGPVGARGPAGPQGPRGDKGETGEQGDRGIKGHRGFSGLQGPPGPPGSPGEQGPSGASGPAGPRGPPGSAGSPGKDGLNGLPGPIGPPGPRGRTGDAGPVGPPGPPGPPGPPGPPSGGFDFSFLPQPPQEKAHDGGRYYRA
T2 sequence (O46392 80-1119 limits assumed): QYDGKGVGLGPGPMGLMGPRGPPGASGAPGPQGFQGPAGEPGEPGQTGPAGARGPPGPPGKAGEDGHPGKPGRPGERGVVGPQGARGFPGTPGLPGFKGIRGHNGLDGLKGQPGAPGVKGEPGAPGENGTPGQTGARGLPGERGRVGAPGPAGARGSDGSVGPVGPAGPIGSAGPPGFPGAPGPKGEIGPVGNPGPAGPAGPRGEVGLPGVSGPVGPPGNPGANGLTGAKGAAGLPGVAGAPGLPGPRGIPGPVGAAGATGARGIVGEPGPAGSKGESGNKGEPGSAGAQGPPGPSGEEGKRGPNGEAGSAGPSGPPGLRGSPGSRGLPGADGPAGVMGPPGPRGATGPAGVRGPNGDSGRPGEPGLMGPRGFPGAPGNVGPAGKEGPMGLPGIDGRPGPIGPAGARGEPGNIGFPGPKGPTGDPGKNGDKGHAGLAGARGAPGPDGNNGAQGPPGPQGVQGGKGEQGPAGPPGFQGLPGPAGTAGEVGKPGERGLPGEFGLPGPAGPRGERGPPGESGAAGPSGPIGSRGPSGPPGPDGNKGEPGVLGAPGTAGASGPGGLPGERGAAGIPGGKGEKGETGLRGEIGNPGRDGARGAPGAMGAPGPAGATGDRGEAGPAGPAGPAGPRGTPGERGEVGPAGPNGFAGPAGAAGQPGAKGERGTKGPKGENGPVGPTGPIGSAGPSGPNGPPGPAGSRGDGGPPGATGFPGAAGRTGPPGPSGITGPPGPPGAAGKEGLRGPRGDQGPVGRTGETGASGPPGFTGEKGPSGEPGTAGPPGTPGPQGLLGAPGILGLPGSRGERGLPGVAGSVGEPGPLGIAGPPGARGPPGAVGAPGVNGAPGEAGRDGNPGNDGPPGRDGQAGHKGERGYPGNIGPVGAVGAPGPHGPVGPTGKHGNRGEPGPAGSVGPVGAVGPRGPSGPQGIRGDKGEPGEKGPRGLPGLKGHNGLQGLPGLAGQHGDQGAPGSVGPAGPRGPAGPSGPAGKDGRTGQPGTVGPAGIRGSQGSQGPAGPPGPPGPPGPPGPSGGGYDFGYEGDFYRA

## CC(C)C[C@H](NC(=O)[C@@H]1CSSC[C@H](NC(=O)[C@H](Cc2c[nH]cn2)NC(=O)[C@H](Cc2c[nH]c3ccccc23)NC(=O)[C@H](Cc2ccc(O)cc2)NC(=O)[C@H](CCCCNC(=O)CC[C@H](C(=O)O)N2CCN(CC(=O)O)CCN(CC(=O)O)CCN(CC(=O)O)CC2)NC(=O)CC[C@H](C(=O)O)N2CCN(CC(=O)O)CCN(CC(=O)O)CCN(CC(=O)O)CC2)C(=O)N[C@@H]([C@@H](C)O)C(=O)N[C@@H]([C@@H](C)O)C(=O)N[C@@H](CCCCNC(=O)CC[C@H](C(=O)O)N2CCN(CC(=O)O)CCN(CC(=O)O)CCN(CC(=O)O)CC2)C(=O)N[C@@H](Cc2ccccc2)C(=O)N2CCC[C@H]2C(=O)N[C@@H](Cc2c[nH]cn2)C(=O)N[C@@H](Cc2c[nH]cn2)C(=O)N[C@@H](Cc2ccc(O)cc2)C(=O)N1)C(=O)N[C@@H](Cc1ccc(O)cc1)C(=O)N[C@@H](Cc1ccc(-c2ccccc2)cc1)C(N)=O [Compound ID No. 3] (X1-K(X1)YWHCTTK(X1)FPHHYCLY[Bip]-NH2; disulfide 5-14)
Human type I collagen
  Kd: 29.8 µM

## CC(C)[C@H](NC(=O)[C@@H]1CSSC[C@H](NC(=O)[C@H](Cc2c[nH]cn2)NC(=O)[C@H](Cc2c[nH]c3ccccc23)NC(=O)[C@H](CCCCNC(=O)CC[C@H](C(=O)O)N2CCN(CC(=O)O)CCN(CC(=O)O)CCN(CC(=O)O)CC2)NC(=O)CC[C@H](C(=O)O)N2CCN(CC(=O)O)CCN(CC(=O)O)CCN(CC(=O)O)CC2)C(=O)N[C@@H](Cc2ccc(O)cc2)C(=O)N[C@@H]([C@@H](C)O)C(=O)N[C@@H](CCCCNC(=O)CC[C@H](C(=O)O)N2CCN(CC(=O)O)CCN(CC(=O)O)CCN(CC(=O)O)CC2)C(=O)N[C@@H](Cc2ccccc2)C(=O)N2CCC[C@H]2C(=O)N[C@@H](Cc2c[nH]cn2)C(=O)N[C@@H](Cc2c[nH]cn2)C(=O)N[C@@H](Cc2ccc(O)cc2)C(=O)N1)C(=O)N[C@@H](Cc1ccc(O)cc1)C(=O)N[C@@H](Cc1ccc(-c2ccccc2)cc1)C(N)=O [Compound ID No. 4] (X1-K(X1)WHCYTK(X1)FPHHYCVY[Bip]-NH2; disulfide 4-13)
[1]
  Kd: 2 µM

## {GdDOTAGA″}-K(GdDOTAGA″)WHCTTK(GdDOTAGA″)FPHHYCLY[Bip]-NH2 (disulfide 4-13) [Compound ID No. 2]
[2]
  Kd: 20.6 µM

B1: Compound ID No. 4 (peptide)
peptide: KWHCYTKFPHHYCVY[Bip]-NH2
modifications: disulfide 4-13; also: GdDOTAGA on N-terminal nitrogen or Lys epsilon amines, sites not fixed
[2]
  Kd: 4.6 µM

— patent US20180185520A1, “COLLAGEN IMAGING COMPOSTIONS” (Collagen Medical, LLC, priority 2015, published 2018)
